Assay results as given in patent US5824698A, “Antibacterial dibenzimidazole derivatives” (priority 1994, dated 1998).
Values after ≈ are worked out from the molar mass of the structure shown. Counter-ions that a name gives are not always drawn. Like-named read-outs stand apart in the source and are kept apart here.

Tests used:
Assay type in all cases: cell-based
Staph. aureus 887 = assay: Antibacterial activity in vitro (MIC, standard agar method); details: Staphylococcus aureus, DST agar, 35° C., 20 hours, read-out: Minimum inhibitory concentration (MIC)
Method: (§1) The minimum inhibitory concentration (MIC) of the substances investigated against gram-positive and gram-negative strains was determined using standard agar methods. The compounds were dissolved in a small amount of dimethyl sulphoxide, diluted with water and incorporated into liquified DST agar at 50° C. The thus-produced agar plates were used immediately thereafter in the test. The test concentrations lay between 128 and 0.06 μg/ml. The bacterial inoculation solutions were prepared from pre-cultures grown overnight, diluted and applied to the agar surface using an inoculation device (Denley A400). The plates were incubated at 35° C. for 20 hours. The MIC was determined as the lowest concentration of substance which prevented a visible growth. A scarcely visible turbidity and the growth of less than 5 colonies were ignored. The determinations of the antibacterial activities (Tab. 1) were carried out not only for the free bases, but also for the hydrochloride salt of each compound. The same values were obtained within experimental error.

B. subtilis ATCC 585369 = assay: as above; details: Bacillus subtilis, ATCC585369, DST agar, 35° C., 20 hours, read-out: Minimum inhibitory concentration (MIC)
Method: as §1

E. coli AS-19 = assay: as above; details: Escherichia coli, AS19, DST agar, 35° C., 20 hours, read-out: Minimum inhibitory concentration (MIC)
Method: as §1

E. faecalis 6 = assay: as above; details: read-out: Minimum inhibitory concentration (MIC)
Method: as §1

P. aeroginosa BA = assay: as above; details: DST agar, 35° C., 20 hours, read-out: Minimum inhibitory concentration (MIC)
Method: as §1

E. coli 1346 = assay: as above; details: Escherichia coli, DST agar, 35° C., 20 hours, read-out: Minimum inhibitory concentration (MIC)
Method: as §1

E. cloacae P 99 = assay: as above; details: Enterobacter cloacae, P99, 20 h, read-out: Minimum inhibitory concentration (MIC)
Method: as §1

S. aureus 853 = assay: as above; details: Staphylococcus aureus, DST agar, 35° C., 20 hours, read-out: Minimum inhibitory concentration (MIC)
Method: as §1

E. coli B = assay: as above; details: Escherichia coli, DST agar, 35° C., 20 hours, read-out: Minimum inhibitory concentration (MIC)
Method: as §1

P. aeroguinosa 3351 = assay: as above; details: read-out: Minimum inhibitory concentration (MIC)
Method: as §1

S. aureus 101 = assay: as above; details: Staphylococcus aureus, DST agar, 35° C., 20 hours, read-out: Minimum inhibitory concentration (MIC)
Method: as §1

E. coli DC2 = assay: as above; details: Escherichia coli; E. coli DC2; DST agar, 35° C., 20 hours; read-out: Minimum inhibitory concentration (MIC)
Method: as §1

E. coli H560 = assay: as above; details: Escherichia coli, read-out: Minimum inhibitory concentration (MIC)
Method: as §1

E. coli 159 R = assay: as above; details: Escherichia coli, read-out: Minimum inhibitory concentration (MIC)
Method: as §1

Staph. aureus 25923 = assay: as above; details: Staphylococcus aureus, DST agar, 35° C., 20 hours, read-out: Minimum inhibitory concentration (MIC)
Method: as §1

E. coli 25922 = assay: as above; details: Escherichia coli; E. coli 25922; DST agar, 35° C., 20 hours; read-out: Minimum inhibitory concentration (MIC)
Method: as §1

Staph. haemolyticus 75 = assay: as above; details: Staphylococcus haemolyticus, DST agar, 35° C., 20 hours, read-out: Minimum inhibitory concentration (MIC)
Method: as §1

[1] = tested on: E. coli K12 KEA-12 (GyrA); assay: as above; details: Escherichia coli, 20 h, read-out: Minimum inhibitory concentration (MIC)
Method: as §1

P. aeruginosa 799/61 = assay: as above; details: Pseudomonas aeruginosa, read-out: Minimum inhibitory concentration (MIC)
Method: as §1

K. oxytoca 1082E = assay: as above; details: Klebsiella oxytoca, DST agar, 35° C., 20 hours, read-out: Minimum inhibitory concentration (MIC)
Method: as §1

[2] = tested on: Helicobacter pylori K 1585; assay: Antibacterial activity against Helicobacter pylori in vitro (MIC, agar method); details: K1585, H. pylori K 1585, Muller-Hinton agar, 5% sheep blood, incubation 4 days, read-out: Minimum inhibitory concentration (MIC)
Method: as §1
(§2) The antibacterial activities against Helicobacter pylori were carried out analogously to the method described above with the following variations: The compounds were incorporated into Muller-Hinton agar containing 5% sheep blood additive. The test concentrations lay between 10 and 0.1 μg/ml. […]

[3] = tested on: Helicobacter pylori PH 81; assay: as above; details: PH81, H. pylori PH 81, Muller-Hinton agar, 5% sheep blood, incubation 7 days, read-out: Minimum inhibitory concentration (MIC)
Method: as §1, §2

S. haemolyticus 91 = assay: Antibacterial activity in vitro (MIC, standard agar method); details: Staphylococcus haemolyticus, DST agar, 35° C., 20 hours, read-out: Minimum inhibitory concentration (MIC)
Method: as §1

S. marcescens = assay: as above; details: Serratia marcescens, read-out: Minimum inhibitory concentration (MIC)
Method: as §1

E. coli 1527 E = assay: as above; details: Escherichia coli, read-out: Minimum inhibitory concentration (MIC)
Method: as §1

[4] = Enterococcus faecalis, E. faecalis 6, DST agar, 35° C., 20 hours
[5] = E. coli 159 R, DST agar, 35° C., 20 hours

| Compound | MIC (Staph. aureus 887) [µg/mL] | MIC (B. subtilis ATCC 585369) [µg/mL] | MIC (E. coli AS-19) [µg/mL] | MIC (E. faecalis 6; [4]) [µg/mL] | MIC (P. aeroginosa BA) [µg/mL] | MIC (E. coli 1346) [µg/mL] | MIC (E. cloacae P 99) [µg/mL] | MIC (S. aureus 853) [µg/mL] | MIC (E. coli B) [µg/mL] | MIC (P. aeroguinosa 3351; 20 h) [µg/mL] | MIC (S. aureus 101) [µg/mL] | MIC (E. coli DC2) [µg/mL] | MIC (E. coli H560; H560, 20 h) [µg/mL] | MIC (Staph. aureus 25923) [µg/mL] | MIC (E. coli 25922) [µg/mL] | MIC (Staph. haemolyticus 75) [µg/mL] | MIC [1] [µg/mL] | MIC (P. aeruginosa 799/61; 799/61, 20 h) [µg/mL] | MIC (K. oxytoca 1082E) [µg/mL] | MIC [2] [µg/mL] | other results |
| --- | --- | --- | --- | --- | --- | --- | --- | --- | --- | --- | --- | --- | --- | --- | --- | --- | --- | --- | --- | --- | --- |
| CCOc1ccc(-c2nc3ccc(-c4ccc5nc(-c6ccc(O)cc6)[nH]c5c4)cc3[nH]2)cc1 [Example 11, 4-[2'-(4-Ethoxy-phenyl)-6,6'-dibenzimidazol-2-yl]-phenol] | 0.25 (≈ 0.56 µM) | 0.25 (≈ 0.56 µM) | 0.5 (≈ 1.12 µM) | 0.5 (≈ 1.12 µM) | > 128 | 0.25 (≈ 0.56 µM) | > 128 | 0.25 (≈ 0.56 µM) | 0.5 (≈ 1.12 µM) | > 128 | 0.5 (≈ 1.12 µM) | 1 (≈ 2.24 µM) | > 128 | 0.25 (≈ 0.56 µM) | > 128 | 0.12 (≈ 0.269 µM) | > 128 | > 128 | > 128 | 1 (≈ 2.24 µM) | MIC (E. coli 159 R; 159R, 20 h): > 128 µg/mL; MIC [3]: < 0.1 µg/mL |
| Oc1ccc(-c2nc3ccc(-c4ccc5nc(-c6ccc(O)cc6)[nH]c5c4)cc3[nH]2)cc1 [Example 5, 4-[2'-(4-Hydroxy-phenyl)-6,6'-dibenzimidazol-2-yl)-phenol hydrochloride] | ≤ 0.12 | ≤ 0.12 | 0.25 |  | > 128 | ≤ 0.12 | > 128 | 0.25 | ≤ 0.12 | > 128 | > 32 | ≤ 0.12 | > 128 | ≤ 0.12 | > 128 | ≤ 0.06 | > 128 | > 128 | > 128 | 1 | MIC (S. haemolyticus 91): 0.12 µg/mL; MIC (S. marcescens; 20 h): > 128 µg/mL; MIC (E. faecalis 6; Enterococcus faecalis, 6, 20 h): ≤ 0.06 µg/mL; MIC (E. coli 1527 E; 1527E, 20 h): > 128 µg/mL; MIC (E. coli 159 R; [5]): > 4 µg/mL; MIC [3]: < 0.1 µg/mL |
| Oc1ccc(-c2nc3ccc(-c4ccc5nc(-c6ccc(O)c(F)c6)[nH]c5c4)cc3[nH]2)cc1F [Example 1, 2-Fluoro-4-[2'-(3-fluoro-4-hydroxy-phenyl)-6,6'-dibenzimidazol-2-yl]-phenol] | 16 (≈ 35.2 µM) |  | > 64 | 2 (≈ 4.4 µM) |  | 32 (≈ 70.4 µM) | > 64 | 16 (≈ 35.2 µM) | > 64 |  | 8 (≈ 17.6 µM) | > 64 |  | 8 (≈ 17.6 µM) |  | 0.25 (≈ 0.55 µM) | > 64 |  |  |  | MIC (S. haemolyticus 91): 8 µg/mL (≈ 17.6 µM); MIC (S. marcescens; S. marcescens, DST agar, 35° C., 20 hours): > 64 µg/mL; MIC (P. aeroguinosa 3351; P. aeroguinosa 3351, DST agar, 35° C., 20 hours): > 64 µg/mL; MIC (E. coli 1527 E; E. coli 1527 E, DST agar, 35° C., 20 hours): > 64 µg/mL; MIC (E. coli H560; E. coli H560, DST agar, 35° C., 20 hours): 8 µg/mL (≈ 17.6 µM); MIC (E. coli 159 R; [5]): 8 µg/mL (≈ 17.6 µM); MIC (P. aeruginosa 799/61; P. aeruginosa 799/61, DST agar, 35° C., 20 hours): > 64 µg/mL |
